Assay results: patent US20180303776A1, “LIPOSOMAL REHYDRATION SALT FORMULATION FOR TREATMENT OF ALCOHOL RELATED DISORDERS” (EINSOF BIOHEALTH LIMITED, priority 2017, published 2018)

What was measured:
[1] = system: MD2; test: MD2 protein expression in frontal cortex after ethanol intoxication; format: in vivo, rats; conditions: OEA pretreatment
Protocol: (§1) There now follows examples of treatment of ethanol intoxication and using OEA as Example 10. Rats received an initial dose of 5 g/kg of 30% (w/v) ethanol via oral probe and a maximum of 3 g/kg of ethanol in subsequent doses every 8 hours. Blood was collected from the tail vein 2 hours before and 2 hours after 15:00 hours of ethanol administration by gavage on days 2 to 4 in order to determine blood ethanol levels (BEL), and treated of keeping toxic ethanol doses BEL relatively constant (see the table below). Mean ethanol/rat doses were 8 g/kg, 7.5 g/kg, 7.9 g/kg and 4.9 g/kg, day 1 to 4, respectively, and the mean ethanol/rat/day (1-4) was 7.06 g/kg. In a first experiment, the time-course of the neuro-inflammation was verified after 1 hour, 6 hours and 24 hours from the last feeding forced with ethanol. […]
(§2) HMGB1 is a dangerous cytokine recruited by alcohol that activates the MyD88-dependent TLR4 immune signaling pathway, inducing the translocation of the p65 subunit of NF-kB to the nucleus and increasing its transcriptional activity. […] Lipid peroxidation, measured by the accumulation of 4-HNE, induces a redox cell state related to activation of caspase 3 and cell death by caspase-mediated apoptosis 8. […]
(§3) The western blot analysis was studied. […] Autoradiography was quantified by densitometry (NIH ImageJ® software, National Biosciences, Lincoln, Nebr. USA) and expressed as optical density (O.D.). […]

[2] = system: iNOS; test: iNOS mRNA expression in frontal cortex; format: in vivo, rats; conditions: OEA pretreatment
Protocol: as §1, with “g/kg.” for “g/kg. In a first experiment, the time-course of the neuro-inflammation was verified after 1 hour, 6 hours and 24 hours from the last feeding forced with ethanol.”
as §2
(§4) Real-time Polymerase Chain Reaction Analysis (RT-PCR) were studied. […] Quantitative changes in mRNA levels were estimated by RT-PCR, carried out in the presence of the SYBR green probe using a […] reaction in a Rotor-Gene (Corbett Research®, Mortlake, NSW, Australia).

[3] = system: rats exposed to ethanol intoxication; test: Forced swimming test during early ethanol abstinence; format: in vivo; conditions: forced swimming test 48 hours after last ethanol administration; OEA pretreatment
Protocol: (§5) Tests were conducted to determine the effects of repeated OEA administration on depressive and anxiety behavior during early ethanol abstinence. Animals were tested in the cross-raised labyrinth 24 hours and 12 days after the alcohol abuse protocol and forced swimming test was performed 48 hours after the last administration of ethanol. [HMGB1 (High Mobility Group Box 1): high mobility group 1 box; TLR4 (Toll-Like Receptors 4): Receptors type Toll 4: MD2 (Myeloid Differentiation Protein 2): myeloid differentiation protein 2; MyD88 (Myeloid Differentiation Factor 88): myeloid differentiation factor 88; NF-kB (Nuclear Farctor kB): nuclear transcription factor kappa B (p65 subunit); IkB: inhibitory protein IkappaB; TNF-α (Tumor Necrosis Factor α): tumor necrosis factor alpha; IL-1β (Interleukin β): 1interleukin-1 beta; MCP-1 (Monocyte Chemoattractant Protein 1): monocyte chemotactic protein 1; INOS (inducible Nitric Oxide Synthase): inducible nitric oxide synthase; COX-2 (Cyclooxygenase 2): cyclooxygenase 2; 4-HNE (4-hydroxynonenal): 4-hydroxynonenal]. In this third experiment (n=25), the treatment with ethanol intoxication and OEA pretreatment applied in experiment 2 was repeated, and the animals were submitted to the maze test in a high cross 24 hours and 12 days after the last forced ethanol administration and the forced swimming test 48 hours after the ethanol intoxication protocol. Behavioral tests were studied. The forced swimming test was performed on the rats two days after the last forced feed with ethanol and the specific behaviors were recorded with a digital video camera for 5 minutes. These same rats were also tested by the high cross maze test equipped with infrared light (Panlab, Barcelona, Spain) 1 and 12 days after the last forced feed with ethanol, allowing the animals to freely explore the labyrinth during 5 minutes. Tests were performed 3 hours after onset of the dark phase.

[4] = system: TNF-α; test: TNF-α in frontal cortex and plasma after ethanol intoxication; format: in vivo, rats; conditions: OEA pretreatment
Protocol: as §1, with “ethanol. In the second experiment, OEA (5 mg/kg, ip, 10 mg/kg loading dose) was injected as pretreatment 10 min before each ethanol forced feed, and brain/blood tissue samples were collected 2-4 hours after the last administration of ethanol.” for “ethanol.”
as §2, §4
(§6) Levels of HMGB1, pro-inflammatory cytokines (TNF-α, IL-1β) and chemokines MCP-1 were studied. Levels of HMGB1, TNF-α, IL-1β and soluble MCP-1 were determined by Enzyme-linked immunosorbent assay (ELISA) 30 (Elabscience Biotechnology Co., Ltd., China, for HMGB-1; RayBiotech®, GA, USA, for the TNF-α, IL-1β and MCP-1). The nuclear/cytosolic HMGB1 fraction was determined by Western blot analysis.

[5] = system: MCP-1; test: MCP-1 levels in frontal cortex after ethanol intoxication; format: in vivo, rats; conditions: OEA pretreatment
Protocol: as §1, with “g/kg.” for “g/kg. In a first experiment, the time-course of the neuro-inflammation was verified after 1 hour, 6 hours and 24 hours from the last feeding forced with ethanol.”
as §2
as §6, with “The nuclear/cytosolic HMGB1 fraction was determined by Western blot analysis.” left out

[6] = system: COX-2; test: COX-2 mRNA expression in frontal cortex; format: in vivo, rats; conditions: 2-4 hours after last ethanol administration, OEA pretreatment
Protocol: as §1, with “g/kg.” for “g/kg. In a first experiment, the time-course of the neuro-inflammation was verified after 1 hour, 6 hours and 24 hours from the last feeding forced with ethanol.”
as §2, §4

[7] = system: rats exposed to ethanol intoxication; test: Elevated cross maze test during ethanol abstinence; format: in vivo
Protocol: as §5, with “In this third experiment (n=25), the treatment with ethanol intoxication and OEA pretreatment applied in experiment 2 was repeated, and the animals were submitted to the maze test in a high cross 24 hours and 12 days after the last forced ethanol administration and the forced swimming test 48 hours after the ethanol intoxication protocol. Behavioral tests were studied.” left out, “These same rats were also tested by the high cross maze test equipped with infrared light (Panlab, Barcelona, Spain) 1 and 12 days after the last forced feed with ethanol, allowing the animals to freely explore the labyrinth during 5 minutes. Tests were performed 3 hours after onset of the dark phase.” left out

[8] = system: HMGB1; test: HMGB1 expression in frontal cortex after ethanol intoxication; format: in vivo, rats
Protocol: as §1, §2, §3

[9] = system: caspase-3; test: Caspase-3 expression and activity in frontal cortex; format: in vivo, rats; conditions: OEA pretreatment
Protocol: as §1, with “ethanol. In the second experiment, OEA (5 mg/kg, ip, 10 mg/kg loading dose) was injected as pretreatment 10 min before each ethanol forced feed, and brain/blood tissue samples were collected 2-4 hours after the last administration of ethanol.” for “ethanol.”
as §2, §3, §4
Measurement of caspase-3 activity was studied. Caspase-3 activity was determined using a fluorometric assay kit (Abnova®, Taiwan) according to the manufacturer's protocol. […]

[10] = system: caspase-8; test: Caspase-8 mRNA expression in frontal cortex; format: in vivo, rats; conditions: OEA pretreatment
Protocol: as §1, with “g/kg.” for “g/kg. In a first experiment, the time-course of the neuro-inflammation was verified after 1 hour, 6 hours and 24 hours from the last feeding forced with ethanol.”
as §2, §4

[11] = system: 4-HNE; test: Lipid peroxidation (HNE adduct formation) in frontal cortex; format: in vivo, rats; conditions: significant only in the animals treated with ethanol
Protocol: as §1, with “g/kg.” for “g/kg. In a first experiment, the time-course of the neuro-inflammation was verified after 1 hour, 6 hours and 24 hours from the last feeding forced with ethanol.”
as §2
Lipid peroxidation was studied. […] Levels of HNE protein adducts in cerebral cortex lysates were measured using a competitive 96-well OxySelect™ adduct HNE ELISA Kit (Cell Biolabs®, San Diego, Calif., US).

[12] = system: TLR4; test: TLR4 mRNA and protein expression in frontal cortex after ethanol intoxication; format: in vivo, rats; conditions: OEA pretreatment
Protocol: as §1, §2, §3

[13] = system: corticosterone; test: Plasma corticosterone levels; format: in vivo, rats
Protocol: (§7) There now follows examples of treatment of ethanol intoxication and using OEA as Example 10. Rats received an initial dose of 5 g/kg of 30% (w/v) ethanol via oral probe and a maximum of 3 g/kg of ethanol in subsequent doses every 8 hours. Blood was collected from the tail vein 2 hours before and 2 hours after 15:00 hours of ethanol administration by gavage on days 2 to 4 in order to determine blood ethanol levels (BEL), and treated of keeping toxic ethanol doses BEL relatively constant (see the table below). Mean ethanol/rat doses were 8 g/kg, 7.5 g/kg, 7.9 g/kg and 4.9 g/kg, day 1 to 4, respectively, and the mean ethanol/rat/day (1-4) was 7.06 g/kg. In a first experiment, the time-course of the neuro-inflammation was verified after 1 hour, 6 hours and 24 hours from the last feeding forced with ethanol. In the second experiment, OEA (5 mg/kg, ip, 10 mg/kg loading dose) was injected as pretreatment 10 min before each ethanol forced feed, and brain/blood tissue samples were collected 2-4 hours after the last administration of ethanol.
(§8) Experimental design, drug administration and tissue/plasma collection are now discussed. […]
(§9) Plasma levels of corticosterone and LPS were studied. Corticosterone and LPS were measured in plasma using commercially available kits by radioimmunOEAsay (RIA) (Coat-A-Count®, Siemens, La., USA) or colorimetric enzyme reaction (HyCult Biotech, Uden, respectively).

[14] = system: MyD88; test: MyD88 protein expression in frontal cortex after ethanol intoxication; format: in vivo, rats; conditions: OEA pretreatment
Protocol: as §1, §2, §3

[15] = system: IκBα; test: IκBα mRNA and protein expression in frontal cortex; format: in vivo, rats; conditions: OEA pretreatment
Protocol: as §1, §2, §3

[16] = system: IL-1β; test: IL-1β in frontal cortex and plasma after ethanol intoxication; format: in vivo, rats; conditions: OEA pretreatment
Protocol: as §7, with “of ethanol. […]” for “of ethanol.”
as §2, §4, §6

[17] = system: LPS; test: Plasma LPS levels (intestinal permeability to endotoxins); format: in vivo, rats; conditions: pretreated with OEA and receiving ethanol; ethanol alone approximately 80%
Protocol: as §7, §8, §9

[18] = system: p65 subunit of NF-kB; test: NF-κB p65 expression and transcription factor activity in frontal cortex; format: in vivo, rats
Protocol: as §1, with “g/kg.” for “g/kg. In a first experiment, the time-course of the neuro-inflammation was verified after 1 hour, 6 hours and 24 hours from the last feeding forced with ethanol.”
as §2
Real-time Polymerase Chain Reaction Analysis (RT-PCR) were studied. […] Quantitative changes in mRNA levels were estimated by RT-PCR, carried out in the presence of the SYBR green probe using a […] reaction in a Rotor-Gene (Corbett Research®, Mortlake, NSW, Australia). […]

CCCCCCCC/C=C\CCCCCCCC(=O)NCCO [OEA, oleoylethanolamide]
increase in MD2 protein induced by ethanol [1]: inhibited the increase
ethanol-induced increase in the expression of iNOS mRNA [2]: completely prevented
alcohol-induced depressive symptoms [3]: able to prevent alcohol-induced depressive symptoms
immobility [3]: normalizing
latency [3]: normalizing
swimming [3]: normalizing
ethanol-induced increase of TNF-α mRNA expression ([4]; frontal cortex): did not prevent this effect
ethanol-induced increase of TNF-α protein levels ([4]; frontal cortex): not avoided
ethanol-induced increase of TNF-α ([4]; plasma): partially prevented
ethanol-induced increase of MCP-1 levels [5]: prevented this effect
COX-2 mRNA levels [6]: reduced COX-2 mRNA levels with ethanol, but not in the animals treated with vehicle
anxiety-type behavior: percentage of entries and time in the open arms ([7]; 24 hours after ethanol intoxication): clear trend showing a clear anxiolytic effect of OEA in the animals treated with ethanol and control, the Dunn post hoc test found no significant effects in multiple comparisons
anxiety-type behavior: percentage of entrances and time of permanence in the open arms ([7]; 12 days after ethanol intoxication): not significant
increase in HMGB1 induced by ethanol intoxication ([8]; OEA 5 mg/kg ip 10 min before each ethanol dose): prevented
nuclear/cytoplasmic HMGB1 ratio ([8]; OEA pretreatment + ethanol): 1.48
alcohol-induced overexpression of caspase-3 mRNA [9]: not able to prevent this effect
ethanol-induced increase in caspase-3 activity [9]: reversed
ethanol-induced overexpression of caspase-3 protein [9]: prevented
ethanol-induced overexpression of caspase-8 mRNA [10]: reversed this effect
HNE formation (lipid peroxidation) [11]: decreased the HNE formation
ethanol-induced overexpression of TLR4 mRNA [12]: able to reduce the overexpression
ethanol-induced overexpression of TLR4 protein [12]: able to reduce the overexpression
ethanol-induced increase in plasma corticosterone levels ([13]; animals exposed to ethanol intoxication, OEA pretreatment): completely prevented
plasma corticosterone levels ([13]; control animals): did not modify
increase in ethanol-induced MyD88 protein expression [14]: inhibited the increase
increase in IκBα mRNA levels induced by ethanol [15]: did not counteract
increase in IκBα protein expression induced by ethanol [15]: did not counteract
ethanol-induced increase in IL-1β protein levels ([16]; frontal cortex): prevented
ethanol-induced increase of IL-1β mRNA expression ([16]; frontal cortex): did not prevent this effect
ethanol-induced increase of IL-1β ([16]; plasma): prevented
LPS plasma levels [17]: 44 % increase over control
increase in nuclear activity of p65 induced by ethanol ([18]; frontal cortex nuclear extracts, OEA pretreatment): counteracted
increase in p65 mRNA levels induced by ethanol ([18]; frontal cortex, OEA pre-administration): partially prevented
